The text below walks through data of ChEMBL document CHEMBL1125670, “Synthesis and evaluation of novel ether lipid nucleoside conjugates for anti-HIV-1 activity” (J Med Chem, 1991).

Structures are written as SMILES.

The test system of experiment [1] is Human immunodeficiency virus 1. In words: Anti-HIV-1 activity against syncytial plaque formation. It is filed as functional, organism-based.
A further experiment has as its system CEM-SS. In words: Concentration of compound required to 50% growth inhibition of CEM-SS cells.
Experiment [2] deals with U1. The experiment in a line: (§1) inhibition of p24 core antigen synthesis in U1 cells. The class given is functional, Homo sapiens.
Experiment [3] has as its system Human immunodeficiency virus 1. The experiment in a line: Anti-HIV-1 activity against syncytial plaque formation at a conc. of 0.0015 uM. The class given is functional.
Experiment [4] deals with U1. The experiment in a line: (§2) inhibition of HIV-1 induced RT production in U1 cells. It is filed as functional, Homo sapiens.
Experiment [5] deals with Human immunodeficiency virus 1. The experiment in a line: Anti-HIV-1 activity against syncytial plaque formation at a conc. of 0.003 uM. The class given is functional.
The test system of experiment [6] is Human immunodeficiency virus 1. The experiment in a line: Anti-HIV-1 activity against syncytial plaque formation at a conc. of 0.012 uM. The class given is functional.
The subject of experiment [7] is Human immunodeficiency virus 1. The experiment in a line: Anti-HIV-1 activity against syncytial plaque formation at a conc. of 0.0007 uM. The class given is functional.
The subject of experiment [8] is Human immunodeficiency virus 1. The experiment in a line: Anti-HIV-1 activity against syncytial plaque formation at a conc. of 0.006 uM. The class given is functional.
Experiment [9] has as its system Human immunodeficiency virus 1. In words: Anti-HIV-1 activity against syncytial plaque formation at a conc. of 0.0003 uM. It is filed as functional.
The test system of experiment [10] is U1. In words: (§3) inhibition of infectious virus production in U1 cells. The class given is functional, Homo sapiens.
Experiment [11] relates to Human immunodeficiency virus 1. In words: Anti-HIV-1 activity against syncytial plaque formation at a conc. of 1 uM. It is filed as functional.
For experiment [12], the system named is U1. The experiment is described as §3. The class given is functional, Homo sapiens. Also on record: scale not given: the % may be the effect or the level left.
Experiment [13] deals with U1. The description is as §1. It is filed as functional, Homo sapiens. Also on record: scale not given: the % may be the effect or the level left.
Experiment [14] deals with Human immunodeficiency virus 1. In words: Anti-HIV-1 activity against syncytial plaque formation at a conc. of 0.5 uM. The class given is functional.
The test system of experiment [15] is Human immunodeficiency virus 1. In words: Anti-HIV-1 activity against syncytial plaque formation at a conc. of 0.25 uM. It is filed as functional.
Experiment [16] deals with U1. Described as §2. Also on record: scale not given: the % may be the effect or the level left. The class given is functional, Homo sapiens.
Experiment [17] deals with Human immunodeficiency virus 1. In words: Anti-HIV-1 activity against syncytial plaque formation at a conc. of 0.12 uM. It is filed as functional.
For experiment [18], the system named is Human immunodeficiency virus 1. The experiment in a line: Anti-HIV-1 activity against syncytial plaque formation at a conc. of 0.03 uM. The class given is functional.
Experiment [19] relates to Human immunodeficiency virus 1. The experiment in a line: Anti-HIV-1 activity against syncytial plaque formation at a conc. of 0.06 uM. The class given is functional.

The term IC50 denotes the concentration needed to halve the response being measured. As a reminder, the inhibition is the percentage by which the read-out fell short of the control.

As for `CCCCCCCCCCCCCCCCCC(=O)NCC(CO)OCC` (stereo not given), the IC50 (in experiment [1]; in the experiment on CEM-SS) was more than 100 µM throughout.

As to `Cc1cn([C@H]2C[C@H](N=[N+]=[N-])[C@@H](CO)O2)c(=O)[nH]c1=O` [ZIDOVUDINE], the results for the Of control with U1 [2], in the experiment on U1 [4] and in the experiment on U1 [10] were 101%, 90% and 87%, respectively. Further, testing at 0.0015 µM in experiment [3] gave an inhibition of 70%. In experiment [5], the inhibition at 0.003 µM came to 79%. For the same molecule, 0.012 µM produced 93% inhibition in experiment [6]. The inhibition at 0.0007 µM in experiment [7] was 53%. The molecule also gave an inhibition at 0.006 µM in experiment [8] of 87%. Besides, the inhibition at 0.0003 µM in experiment [9] worked out at 18%. Besides, the IC50 with CEM-SS came out at 5.1 µM.

`CCCCCCCCCCCCCCCCCC(=O)NCC(COP(=O)(O)O)OCC` (stereo not given): the IC50 (in [1]; in the experiment with CEM-SS) was more than 100 µM in each case.

On to `CCCCCCCCCCCCCCCCCC(=O)NCC(COP(=O)(O)OC[C@@H]1CC[C@H](n2cnc3c(=O)[nH]cnc32)O1)OCC` (stereo not given in full), for which the half-maximal inhibitory concentration (IC50) in experiment [1] was 1.56 µM; in the experiment on CEM-SS it was more than 100 µM.

For the molecule `CCCCCCCCCCCCCCCCCC(=O)[N-]CC(COP(=O)([O-])OCC[N+](C)(C)C)OCC.[Na+]` (stereo not given), the inhibition at 1 µM in [11] turned out to be 89%. Besides, the Control is recorded as 33% with U1 [12], 74% with U1 [13] and 147% with U1 [16]. This molecule also came in with an inhibition at 0.5 µM in experiment [14] of 74%. Besides, the inhibition at 0.25 µM in experiment [15] is 60%. In [17], this molecule showed an inhibition at 0.12 µM of 49%. Further, in experiment [18], testing at 0.03 µM gave an inhibition of 14%. Besides, the 50% inhibitory concentration (IC50) in [1] turned out to be 0.11 µM; with CEM-SS, 14.3 µM. The molecule also returned an inhibition at 0.06 µM in [19] of 34%.

Take `CCCCCCCCCCCCCCCCCCOCC(COP(=O)([O-])OCC[N+](C)(C)C)OC` (stereo not given) [EDELFOSINE]: the half-maximal inhibitory concentration (IC50) in [1] came to 1.4 µM; in the experiment on CEM-SS, 4 µM.

Turning to `CCCCCCCCCCCCCCCCSCC(COP(=O)([O-])OCC[N+](C)(C)C)OCC` (stereo not given), the results for the 50% inhibitory concentration (IC50) (in experiment [1]; in the experiment with CEM-SS) were 0.6 µM and 4.1 µM, respectively.

For `O=c1[nH]cnc2c1ncn2[C@H]1CC[C@@H](CO)O1` [DIDANOSINE], the concentration for half-maximal inhibition (IC50) in experiment [1] is 1.7 µM; in the experiment on CEM-SS, more than 100 µM.

As for `CCCCCCCCCCCCCCCCCC(=O)NCC(COP(=O)([O-])OC[C@H]1O[C@@H](n2cc(C)c(=O)[nH]c2=O)C[C@@H]1N=[N+]=[N-])OCC.[Na+]` (stereo not given in full), the Control is on record as 67% in the experiment on U1 [12], 84% with U1 [13] and 121% in the experiment with U1 [16]. The IC50 in experiment [1] is 0.03 µM; with CEM-SS it was 53.8 µM.

As for `CCCCCCCCCCCCCCCCOCC(COP(=O)(O)OC[C@H]1O[C@@H](n2cc(C)c(=O)[nH]c2=O)C[C@@H]1N=[N+]=[N-])OCC` (stereo not given in full), the IC50 in experiment [1] turned out to be 0.03 µM; with CEM-SS, 35 µM.
